{"source": "paper PMC6646405", "about": "“A quantitative, high-throughput method identifies protein–glycan interactions via mass spectrometry” (Communications Biology, 2019)", "key": {"[1]": {"target": "T1, human neuraminidase 2 (NEU2) (Homo sapiens, UniProt Q9Y3R4)", "T1 construct": "made in house", "T1 sequence (Q9Y3R4 whole entry)": "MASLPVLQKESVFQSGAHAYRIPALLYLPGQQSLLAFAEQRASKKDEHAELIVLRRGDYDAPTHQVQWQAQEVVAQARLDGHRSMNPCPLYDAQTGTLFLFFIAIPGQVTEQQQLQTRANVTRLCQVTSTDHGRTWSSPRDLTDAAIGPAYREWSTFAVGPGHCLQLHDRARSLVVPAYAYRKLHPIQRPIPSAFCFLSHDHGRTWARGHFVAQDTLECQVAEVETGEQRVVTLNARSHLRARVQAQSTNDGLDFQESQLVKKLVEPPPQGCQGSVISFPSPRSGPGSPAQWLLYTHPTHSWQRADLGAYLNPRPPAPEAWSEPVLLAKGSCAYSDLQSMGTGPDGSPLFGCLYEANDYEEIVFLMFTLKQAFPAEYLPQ", "experiment": "Time-resolved CUPRA enzyme kinetics, NEU2", "type": "biochemical", "conditions": "for fraction of OSmod substrate remaining (Fig2d time course): 200 mM aqueous ammonium acetate, pH 7, 25 °C", "protocol": "To apply CUPRA in this capacity, two or more substrates of interest are introduced, as their corresponding OS^mod, to a solution containing the desired CAZyme. Changes in substrate concentrations, as well as those of the corresponding enzyme products, are determined from the relative abundances of OS^mod-bound ^UniPproxy measured by time-resolved ESI-MS. Because of the manner in which the substrate and product concentrations are measured, the assay is insensitive to differences in their ESI-MS response factors and, consequently, independent of the nature of the chemical modification catalyzed by the enzyme. As a result, time-resolved CUPRA eliminates the need for calibration curves or internal standards, which are generally required with ESI-MS-based enzyme kinetics assays.\nTwo glycosyl hydrolases, human neuraminidase 2 (NEU2) and 3 (NEU3), which preferentially cleave α2-3-linked Neu5Ac residues, were used to illustrate the ease with which time-resolved CUPRA can establish substrate specificities. We incubated libraries of the Neu5Ac-containing OS^mod with NEU2 (Fig. 2d) or NEU3 (Fig. 2e) and monitored their conversion to the corresponding desialylated OS^mod products at pH 7 and 25 °C. […] All OS^mod containing terminal α2-3-linked Neu5Ac were substrates of NEU3, with initial rates that are 10–50% that of HMO03. […] Substrates containing branching after the α2-3-linkage were poor substrates for both enzymes. […] We note, however, that previous reports have examined NEU2 and NEU3 activity under more acidic solution conditions. Furthermore, the nature of the substrate aglycone may influence the activity of human neuraminidases.\nThe time-resolved CUPRA measurements were performed by manually mixing aliquots of stock solutions of NEU2 or NEU3 (final concentration 2 µM), ^UniPproxy (5 µM), substrates (Si, 5 µM each) and CUPRA linker (5 µM), all in 200 mM aqueous ammonium acetate at pH 7 and 25 °C. ESI mass spectra were collected continuously at the rate of 30 scans min^−1 starting at 3 min after mixing. The adduct distributions measured for the ^UniPproxy – CUPRA linker complex ions were used to apply SWARM. The time-dependent fractional abundance of a given substrate (FS,i) (Eq. 12), which was used to represent reaction progress, was calculated from the total Ab of ^UniPproxy bound to Si and corresponding product (Pi), corrected for Si consumed prior to data acquisition.12 FS,i=Ab^UniPproxySi/Ab^UniPproxySi+Ab^UniPproxyPi"}, "[2]": {"target": "streptavidin homotetramer (S4) (Streptomyces avidinii, UniProt P22629)", "sequence (P22629 25-183)": "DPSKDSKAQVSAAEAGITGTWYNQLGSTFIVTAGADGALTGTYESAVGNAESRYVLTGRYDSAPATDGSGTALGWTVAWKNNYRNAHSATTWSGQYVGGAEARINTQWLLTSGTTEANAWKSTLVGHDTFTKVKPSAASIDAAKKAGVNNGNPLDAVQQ", "experiment": "CUPRA library screening against negative control streptavidin", "type": "binding", "set-up": "key: ratio change on GBP addition; ~1.0 = no binding (negative control)", "conditions": "depletion index, 50 μM streptavidin"}}, "data": [{"compound": "CC(=O)N[C@H]1[C@H](O[C@@H]2[C@H](O[C@]3(C(=O)O)C[C@H](O)[C@@H](NC(C)=O)[C@H]([C@H](O)[C@@H](CO)O[C@]4(C(=O)O)C[C@H](O)[C@@H](NC(C)=O)[C@H]([C@H](O)[C@H](O)CO)O4)O3)[C@@H](O)[C@H](O[C@H]3[C@H](O)[C@@H](O)[C@H](N(CCOCCOCCNC(=O)[C@H](Cc4ccccc4)NC(=O)[C@H](Cc4ccccc4)NC(=O)CCCC(=O)NCCc4ccc(S(N)(=O)=O)cc4)C(C)=O)O[C@@H]3CO)O[C@@H]2CO)O[C@H](CO)[C@H](O)[C@@H]1O", "note": "[GA10, GalNAcβ1-4(Neu5Acα2-8 Neu5Acα2-3)Galβ1-4Glc-CL]", "values": [{"measurement": "relative abundance of OSmod substrate (Fig2d time course)", "setting": "[1]; time 60 min", "value": 0.9084}, {"measurement": "relative abundance of OSmod substrate (Fig2d time course)", "setting": "[1]; time 61 min", "value": 0.9152}, {"measurement": "relative abundance of OSmod substrate (Fig2d time course)", "setting": "[1]; time 62 min", "value": 0.9099}, {"measurement": "relative abundance of OSmod substrate (Fig2d time course)", "setting": "[1]; time 63 min", "value": 0.9041}, {"measurement": "relative abundance of OSmod substrate (Fig2d time course)", "setting": "[1]; time 64 min", "value": 0.9}, {"measurement": "relative abundance of OSmod substrate (Fig2d time course)", "setting": "[1]; time 65 min", "value": 0.9101}, {"measurement": "relative abundance of OSmod substrate (Fig2d time course)", "setting": "[1]; time 66 min", "value": 0.9104}, {"measurement": "relative abundance of OSmod substrate (Fig2d time course)", "setting": "[1]; time 67 min", "value": 0.9077}, {"measurement": "relative abundance of OSmod substrate (Fig2d time course)", "setting": "[1]; time 68 min", "value": 0.9072}, {"measurement": "relative abundance of OSmod substrate (Fig2d time course)", "setting": "[1]; time 69 min", "value": 0.9129}, {"measurement": "relative abundance of OSmod substrate (Fig2d time course)", "setting": "[1]; time 70 min", "value": 0.9057}, {"measurement": "relative abundance of OSmod substrate (Fig2d time course)", "setting": "[1]; time 71 min", "value": 0.9057}, {"measurement": "relative abundance of OSmod substrate (Fig2d time course)", "setting": "[1]; time 72 min", "value": 0.9132}, {"measurement": "relative abundance of OSmod substrate (Fig2d time course)", "setting": "[1]; time 73 min", "value": 0.9108}, {"measurement": "relative abundance of OSmod substrate (Fig2d time course)", "setting": "[1]; time 74 min", "value": 0.9071}, {"measurement": "relative abundance of OSmod substrate (Fig2d time course)", "setting": "[1]; time 75 min", "value": 0.9161}, {"measurement": "relative abundance of OSmod substrate (Fig2d time course)", "setting": "[1]; time 76 min", "value": 0.9095}, {"measurement": "relative abundance of OSmod substrate (Fig2d time course)", "setting": "[1]; time 77 min", "value": 0.9151}, {"measurement": "relative abundance of OSmod substrate (Fig2d time course)", "setting": "[1]; time 78 min", "value": 0.9122}, {"measurement": "relative abundance of OSmod substrate (Fig2d time course)", "setting": "[1]; time 79 min", "value": 0.9076}, {"measurement": "relative abundance of OSmod substrate (Fig2d time course)", "setting": "[1]; time 80 min", "value": 0.9134}, {"measurement": "relative abundance of OSmod substrate (Fig2d time course)", "setting": "[1]; time 81 min", "value": 0.9135}, {"measurement": "relative abundance of OSmod substrate (Fig2d time course)", "setting": "[1]; time 82 min", "value": 0.9162}, {"measurement": "relative abundance of OSmod substrate (Fig2d time course)", "setting": "[1]; time 83 min", "value": 0.9125}, {"measurement": "relative abundance of OSmod substrate (Fig2d time course)", "setting": "[1]; time 84 min", "value": 0.9098}, {"measurement": "relative abundance of OSmod substrate (Fig2d time course)", "setting": "[1]; time 97 min", "value": 0.9111}, {"measurement": "relative abundance of OSmod substrate (Fig2d time course)", "setting": "[1]; time 98 min", "value": 0.9062}, {"measurement": "relative abundance of OSmod substrate (Fig2d time course)", "setting": "[1]; time 99 min", "value": 0.9109}, {"measurement": "relative abundance of OSmod substrate (Fig2d time course)", "setting": "[1]; time 100 min", "value": 0.915}, {"measurement": "relative abundance of OSmod substrate (Fig2d time course)", "setting": "[1]; time 101 min", "value": 0.9087}, {"measurement": "relative abundance of OSmod substrate (Fig2d time course)", "setting": "[1]; time 102 min", "value": 0.916}, {"measurement": "relative abundance of OSmod substrate (Fig2d time course)", "setting": "[1]; time 103 min", "value": 0.9129}, {"measurement": "relative abundance of OSmod substrate (Fig2d time course)", "setting": "[1]; time 104 min", "value": 0.9139}, {"measurement": "relative abundance of OSmod substrate (Fig2d time course)", "setting": "[1]; time 105 min", "value": 0.9109}, {"measurement": "relative abundance of OSmod substrate (Fig2d time course)", "setting": "[1]; time 106 min", "value": 0.908}, {"measurement": "relative abundance of OSmod substrate (Fig2d time course)", "setting": "[1]; time 107 min", "value": 0.9138}, {"measurement": "relative abundance of OSmod substrate (Fig2d time course)", "setting": "[1]; time 108 min", "value": 0.911}, {"measurement": "relative abundance of OSmod substrate (Fig2d time course)", "setting": "[1]; time 109 min", "value": 0.9085}, {"measurement": "relative abundance of OSmod substrate (Fig2d time course)", "setting": "[1]; time 110 min", "value": 0.8819}, {"measurement": "relative abundance of OSmod substrate (Fig2d time course)", "setting": "[1]; time 111 min", "value": 0.9092}, {"measurement": "relative abundance of OSmod substrate (Fig2d time course)", "setting": "[1]; time 112 min", "value": 0.9111}, {"measurement": "relative abundance of OSmod substrate (Fig2d time course)", "setting": "[1]; time 113 min", "value": 0.9127}, {"measurement": "fraction of OSmod substrate remaining (Fig2d time course)", "setting": "[1]; time 114 min, time-resolved CUPRA", "value": 0.9126}, {"measurement": "fraction of OSmod substrate remaining (Fig2d time course)", "setting": "[1]; time 115 min, time-resolved CUPRA", "value": 0.9042}, {"measurement": "fraction of OSmod substrate remaining (Fig2d time course)", "setting": "[1]; time 116 min, time-resolved CUPRA", "value": 0.909}, {"measurement": "fraction of OSmod substrate remaining (Fig2d time course)", "setting": "[1]; time 117 min, time-resolved CUPRA", "value": 0.9097}, {"measurement": "fraction of OSmod substrate remaining (Fig2d time course)", "setting": "[1]; time 118 min, time-resolved CUPRA", "value": 0.9085}, {"measurement": "fraction of OSmod substrate remaining (Fig2d time course)", "setting": "[1]; time 119 min, time-resolved CUPRA", "value": 0.9043}, {"measurement": "fraction of OSmod substrate remaining (Fig2d time course)", "setting": "[1]; time 120 min, time-resolved CUPRA", "value": 0.904}, {"measurement": "fraction of OSmod substrate remaining (Fig2d time course)", "setting": "[1]; time 121 min, time-resolved CUPRA", "value": 0.904}, {"measurement": "fraction of OSmod substrate remaining (Fig2d time course)", "setting": "[1]; time 122 min, time-resolved CUPRA", "value": 0.904}, {"measurement": "fraction of OSmod substrate remaining (Fig2d time course)", "setting": "[1]; time 123 min, time-resolved CUPRA", "value": 0.904}, {"measurement": "fraction of OSmod substrate remaining (Fig2d time course)", "setting": "[1]; time 124 min, time-resolved CUPRA", "value": 0.904}, {"measurement": "Relative activity NEU2", "setting": "[1]; time-resolved CUPRA, 200 mM aqueous ammonium acetate pH 7, 25 °C, relative to HMO03", "value": 0.000}, {"measurement": "average DI", "setting": "[2]; mean of 4", "value": 0.9828}, {"measurement": "DIi(50uM S4)", "setting": "[2]; measurement 1 of 4", "value": 0.9829}, {"measurement": "DIi(50uM S4)", "setting": "[2]; measurement 2 of 4", "value": 0.9821}, {"measurement": "DIi(50uM S4)", "setting": "[2]; measurement 3 of 4", "value": 0.9835}, {"measurement": "DIi(50uM S4)", "setting": "[2]; measurement 4 of 4", "value": 0.9826}]}]}
